Results reported in US12516070B2, “Fused ring derivatives and use thereof in pharmacy” (priority 2020, dated 2026).
Where two headings read alike, the source gives them in different places.

How the values were obtained:
[1] = test system: influenza A virus A/PR/8/34 (H1N1); experiment: Influenza virus cytopathic effect (CPE) assay, A/PR/8/34 (H1N1); type: cell-based; details: MDCK cells, 5 days, CCK8, read-out: EC50, inhibitory activity against influenza A virus A/PR/8/34 (H1N1)
[2] = type: in vivo; details: Mouse, PO, 10 mpk of 8B; concentration of 7B detected
Procedure: (§1) Experimental objectives: To evaluate the druggability of the compounds by measuring pharmacokinetic properties in different animal species.
(§2) Experimental materials: Sprague-Dawley strain rats, Beagle dogs, cynomolgus monkeys.
(§3) The animal pharmacokinetic properties of the compound after intravenous injection and oral administration were tested by standard protocols, in which the candidate compound was prepared as a clear solution (intravenous injection) or as a homogeneous suspension (oral administration), and administered as a single dose to the animals. The vehicles for intravenous injection and oral administration are dimethyl sulfoxide and polyethylene glycol (15)-hydroxystearate aqueous solution in certain proportions. Whole blood samples were collected within 24 hours, centrifuged at 3200 g for 10 minutes, and the supernatant was separated to obtain plasma samples. Quantitative analysis of plasma concentrations was performed by LC-MS/MS analysis method, and pharmacokinetic parameters such as peak concentration, peak time, clearance rate, half-life, and area under the drug-time curve were calculated.

[3] = type: in vivo, Beagle dogs; details: Dog, PO, 1 mpk of 8B; concentration of 7B detected
Procedure: as §1, §2, §3

[4] = type: in vivo, cynomolgus monkeys; parameters: Tmax: unit not given here; details: Monkey, PO, 1 mpk of 8B; concentration of 7B detected
Procedure: as §1, §2, §3

[5] = test system: influenza A virus strain A/PR8/34; experiment: Drug efficacy assay in mice, treatment model of influenza A; type: in vivo, mice (BALB/c); details: 30 mpk BID intragastric, day 2 to day 8

CN1C(=O)c2c(O)c(=O)ccn2N2C1CCOc1cc(F)c(F)cc1[C@H]2c1ccccc1 (stereo partly shown) [Compound 1A]
EC50 ([1]; Influenza A virus, 120 h): 22 nM

O=C1c2c(O)c(=O)ccn2N2C(CCOc3cc(F)c(F)cc3[C@H]2c2ccccc2)N1C1CCC1 (stereo partly shown) [Compound 2A]
EC50 ([1]; Influenza A virus, 120 h): 13 nM

O=C1c2c(O)c(=O)ccn2N2[C@H](c3ccccc3)c3ccccc3OCC[C@H]2N1C1CCC1 [Compound 3A]
EC50 [1]: 37 nM

CC(C)N1C(=O)c2c(O)c(=O)ccn2N2C1CCOc1ccccc1[C@H]2c1ccccc1 (stereo partly shown) [Compound 4A]
EC50 ([1]; Influenza A virus, 120 h): 74 nM

COC(=O)OCOc1c2n(ccc1=O)N1[C@H](c3ccccc3)c3cc(F)c(F)cc3OCC[C@H]1N(C)C2=O [Compound 8B]
AUC [2]: 0.93 µM·h | Cmax [2]: 309 nM | T1/2 [2]: 1.3 h | Tmax [2]: 1.2 h | AUC [3]: 0.724 µM·h | Cmax [3]: 171 nM | T1/2 [3]: 4.4 h | Tmax [3]: 0.75 h | AUC [4]: 0.785 µM·h | Cmax [4]: 163 nM | T1/2 [4]: 3.6 h | Tmax [4]: 3 | Change in body weight (Percentage of starting body weight) ([5]; Day 3): −6.6 ± 1.1 Percentage of starting body weight | Survival rate ([5]; Day 3): 100% | Change in body weight (Percentage of starting body weight) ([5]; Day 4): −9.3 ± 0.8 Percentage of starting body weight | Survival rate ([5]; Day 4): 100% | Change in body weight (Percentage of starting body weight) ([5]; Day 5): −8.9 ± 2.2 Percentage of starting body weight | Survival rate ([5]; Day 5): 100% | Change in body weight (Percentage of starting body weight) ([5]; Day 6): −9.4 ± 1.9 Percentage of starting body weight | Survival rate ([5]; Day 6): 100% | Change in body weight (Percentage of starting body weight) ([5]; Day 7): −7.7 ± 1.4 Percentage of starting body weight | Survival rate ([5]; Day 7): 100% | Change in body weight (Percentage of starting body weight) ([5]; Day 8): −0.9 ± 0.8 Percentage of starting body weight | Survival rate ([5]; Day 8): 100% | Change in body weight (Percentage of starting body weight) ([5]; Day 9): −0.5 ± 1.1 Percentage of starting body weight | Survival rate ([5]; Day 9): 100% | Change in body weight (Percentage of starting body weight) ([5]; Day 10): 0.5 ± 0.6 Percentage of starting body weight | Survival rate ([5]; Day 10): 100% | Change in body weight (Percentage of starting body weight) ([5]; Day 11): 2.5 ± 0.6 Percentage of starting body weight | Survival rate ([5]; Day 11): 100% | Change in body weight (Percentage of starting body weight) ([5]; Day 12): 2.9 ± 1.0 Percentage of starting body weight | Survival rate ([5]; Day 12): 100% | Change in body weight (Percentage of starting body weight) ([5]; Day 13): 2.4 ± 1.3 Percentage of starting body weight | Survival rate ([5]; Day 13): 100% | Change in body weight (Percentage of starting body weight) ([5]; Day 14): 2.7 ± 1.4 Percentage of starting body weight | Survival rate ([5]; Day 14): 100%

CN1C(=O)c2c(O)c(=O)ccn2N2C1CCOc1cc(F)c(F)cc1[C@H]2c1ccc(F)cc1 (stereo partly shown) [Compound 9A]
EC50 ([1]; Influenza A virus, 120 h): 34 nM

CN1C(=O)c2c(O)c(=O)ccn2N2[C@H](c3ccccc3Br)c3cc(F)c(F)cc3OCC[C@@H]12 [Compound 18A]
EC50 ([1]; Influenza A virus, 120 h): 11 nM

CN1C(=O)c2c(O)c(=O)ccn2N2[C@H](c3ccccc3)c3ccc(F)c(F)c3OCC[C@@H]12 [Compound 20A]
EC50 ([1]; Influenza A virus, 120 h): 50 nM
